{
  "source": "patent US10265327B2",
  "about": "“V1A antagonists to treat phase shift sleep disorders” (Hoffmann-La Roche Inc., priority 2013, dated 2019)",
  "molecular_target": "T1, mouse V1a receptor (mV1a) (Mus musculus, UniProt Q62463)",
  "T1 construct": "expressed in transfected cells; host or cells: HEK cells, transient transfection; membrane preparation",
  "T1 sequence (Q62463 whole entry)": "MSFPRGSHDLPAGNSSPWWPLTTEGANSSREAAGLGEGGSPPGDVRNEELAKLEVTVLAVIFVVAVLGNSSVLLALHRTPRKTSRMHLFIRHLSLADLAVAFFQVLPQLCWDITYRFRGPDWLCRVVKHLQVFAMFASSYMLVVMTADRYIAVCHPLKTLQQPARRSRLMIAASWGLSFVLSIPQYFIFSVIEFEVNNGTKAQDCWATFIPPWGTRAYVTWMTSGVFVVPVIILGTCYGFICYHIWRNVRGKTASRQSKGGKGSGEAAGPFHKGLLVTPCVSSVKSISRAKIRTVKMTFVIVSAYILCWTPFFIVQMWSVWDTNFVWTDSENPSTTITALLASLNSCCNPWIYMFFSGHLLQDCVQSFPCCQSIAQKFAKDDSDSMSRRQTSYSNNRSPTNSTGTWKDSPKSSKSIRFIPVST",
  "assay": "Radioligand binding assay (3H-AVP, filtration), mouse V1a",
  "conditions": "Ki ± SEM (n); 1 nM 3H-AVP",
  "method": "The test compound was initially dissolved in DMSO at a concentration of 10 mM. Subsequent dilutions were made in assay buffer with a maximum final concentration of 0.2% DMSO.\nRecombinant vasopressin V1a (human: hV1a; mouse: mV1a), V1b (human: hV1b) were independently expressed in human embryonic kidney (HEK) cells using transient transfection. The cell membranes expressing the various receptors were prepared by homogenizing (using Polytron homogenizer) the cell culture pellet in lysis buffer (50 mM HEPES, 1 mM EDTA, 10 mM MgCl2, pH 7.4 with protease inhibitors), then centrifuging the resulting suspension at 500 g for 20 min at 4° C. The supernatant was subsequently re-centrifuged at 43,000 g for 1 hour at 4° C. […] The concentration of protein was determined, and the membranes were aliquoted and stored at −80° C. until further use.\nAll radioligand binding assays were carried out in 96-well plates in the presence of 1 nM ^3H-AVP (vasopressin) radioligand, and 10 concentrations of test compound (ranging from 27 μM-1 nM or 2.7 μM-0.1 nM for hV1a binding). […] Filtration assays were terminated by rapid filtration under vacuum through GF/C filters, presoaked for 5 min with buffer B containing Tris 50 mM, MgCl2 5 mM, 0.1% BSA (pH 7.4), followed by 5×0.4 ml washes of ice-cold buffer B. For both SPA and filtration plates, bound ligand was determined using a Packard Topcount scintillation counter. […]",
  "data": [
    {"smiles": "CN1Cc2cc(Cl)ccc2-n2c(nnc2[C@H]2CC[C@H](Oc3ccccn3)CC2)C1", "note": "[Example 1, trans-8-chloro-5-methyl-1-(4-pyridin-2-yloxycyclohexyl)-4,6-dihydro-[1,2,4]triazolo[4,3-a][1,4]benzodiazepine]", "values": [
      {"measurement": "Ki", "value": "77 ± 2", "unit": "nM"}
    ]}
  ]
}
